Counter-ions that a name gives are not always drawn.

This assay deals with Acinetobacter baumannii ATCC17978. The assay can be described thus: Antimicrobial susceptibility testing: 90% growth inhibitory concentration (IC90) determination, Iso-Sensitest broth, OD 600 nm. In kind it is cell-based. The note with it: Acinetobacter baumannii, ATCC17978, 16 h, 90% growth inhibitory concentration, Acinetobacter baumannii ATCC17978, Iso-Sensitest broth, OD 600 nm over 16 h; read-out: ATCC 17978 IC90. Summed up: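 Growth of bacteria (~5×10^5 CFU/ml, Iso-Sensitest medium, 35±2 °C) was followed by OD at 600 nm at 20-min intervals over 16 h against a 10-point twofold compound series (e.g. 50–0.097 μM final). Concentration giving 90% inhibition in log phase was reported.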
Turning to `Cc1cc(Nc2nccn3c(-c4ccc(OC(F)F)cc4)cnc23)ccc1C(=O)NCCOCCN1CCC2(CCOCC2)C1` [Example 91, 4-[[3-[4-(difluoromethoxy)phenyl]imidazo [1,2-a]pyrazin-8-yl]amino]-2-methyl-N-[2-[2-(8-oxa-2-azaspiro[4.5]decan-2-yl)ethoxy]ethyl] benzamide], the IC90 turned out to be 650 nM.

For `CCc1cc(Nc2nccn3c(-c4ccc(Cl)c(F)c4F)cnc23)ccc1C(=O)NCCOCCNCCO` [Example 92, 4-[[3-(4-chloro-2,3-difluoro-phenyl)imidazo [1,2-a]pyrazin-8-yl]amino]-2-ethyl-N-[2-[2-(2-hydroxyethyl-amino)ethoxy]ethyl]benzamide], the IC90 was 260 nM.

Take `COCC#CCOc1ccc(-c2cnc3c(Nc4ccc(C(=O)NCCOCCN)c(C)c4)nccn23)cc1` [Example 93, N-[2-(2-aminoethoxy)ethyl]-4-[[3-[4-(4-methoxy-but-2-ynoxy)phenyl]imidazo[1,2-a]pyrazin-8-yl]amino]-2-methylbenzamide; formic acid]: the IC90 is 280 nM.

Take `Cc1cc(Nc2nccn3c(-c4ccc(OC(F)F)cc4)cnc23)ccc1C(=O)NCCOCCNC=O` [Example 94, 4-[[3-[4-(difluoromethoxy)phenyl]imidazo [1,2-a]pyrazin-8-yl]amino]-N-[2-(2-formamidoethoxy)ethyl]-2-methylbenzamide]: the IC90 amounted to 280 nM.

In the case of `Cc1cc(Nc2nccn3c(-c4ccc(OC(F)F)cc4)cnc23)ccc1C(=O)NCCOCCN1CCCCC1` [Example 95, 4-[[3-[4-(difluoromethoxy)phenyl]imidazo [1,2-a]pyrazin-8-yl]amino]-2-methyl-N-[2-(2-piperidin-1-ylethoxy)ethyl] benzamide], the 90% effect concentration (IC90) came to 280 nM.

Turning to `Cc1cc(Nc2nccn3c(-c4ccc(OC(F)F)cc4)cnc23)ccc1C(=O)NCCOCCN(C)C` [Example 96, 4-[[3-[4-(difluoromethoxy)phenyl]imidazo [1,2-a]pyrazin-8-yl]amino]-N-[2-[2-(dimethylamino)ethoxy]ethyl]-2-methyl-benzamide], the IC90 came to 310 nM.

Turning to `Cc1cc(Nc2nccn3c(-c4ccc(OC(F)F)c(F)c4)cnc23)ccc1C(=O)NCCOCCN` [Example 97, N-[2-(2-aminoethoxy)ethyl]-4-[[3-[4-(difluoro-methoxy)-3-fluorophenyl]imidazo[1,2-a]pyrazin-8-yl]amino]-2-methylbenzamide; hydrochloride], the IC90 amounted to 370 nM.

With `CC(=O)NCCOCCNC(=O)c1ccc(Nc2nccn3c(-c4ccc(OC(F)F)cc4)cnc23)cc1C` [Example 98], the IC90 is 420 nM.

Take `Cc1cc(Nc2nccn3c(-c4ccc(Cl)cc4)cnc23)ccc1C(=O)NCCOCCN` [Example 99, N-[2-(2-aminoethoxy)ethyl]-4-[[3-(4-chlorophenyl)imidazo[1,2-a]pyrazin-8-yl]amino]-2-methylbenzamide; hydrochloride]: the IC90 came out at 440 nM.

With `Cc1cc(Nc2nccn3c(-c4ccc(OCC#CCOCCN)cc4)cnc23)ccc1C(=O)NCCOCCN` [Example 100, 4-[[3-[4-[4-(2-aminoethoxy)but-2-ynoxy]phenyl]imidazo[1,2-a]pyrazin-8-yl]amino]-N-[2-(2-aminoethoxy)ethyl]-2-methylbenzamide; formic acid], the IC90 worked out at 440 nM.

Turning to `Cc1cc(Nc2nccn3c(-c4ccc(OC(F)F)cc4)cnc23)ccc1C(=O)NCCNCCN` [Example 101, N-[2-(2-aminoethylamino)ethyl]-4-[[3-[4-(difluoromethoxy)phenyl]imidazo [1,2-a]pyrazin-8-yl]amino]-2-methylbenzamide; hydrochloride], the IC90 was 440 nM.

Regarding `Cc1cc(Nc2nccn3c(-c4ccc(OC(F)F)cc4)cnc23)ccc1C(=O)NCCOCCNS(C)(=O)=O` [Example 102, 4-[[3-[4-(difluoromethoxy)phenyl]imidazo [1,2-a]pyrazin-8-yl]amino]-N-[2-[2-(methane-sulfonamido)ethoxy]ethyl]-2-methylbenzamide], the concentration for an effect of 90% (IC90) was determined as 460 nM.

Regarding `COc1ccc(-c2cnc3c(Nc4ccc(C(=O)NCCNCCN)c(C)c4)nccn23)cc1` [Example 104, N-[2-(2-aminoethylamino)ethyl]-4-[[3-(4-methoxyphenyl)imidazo[1,2-a]pyrazin-8-yl]amino]-2-methylbenzamide; hydrochloride], the IC90 amounted to 480 nM.

With `COc1ccc(-c2cnc3c(Nc4ccc(C(=O)NCCOCC(=O)N5CCNCC5)c(C)c4)nccn23)cc1F` [Example 105, 4-[[3-(3-fluoro-4-methoxyphenyl)imidazo[1,2-a]pyrazin-8-yl]amino]-2-methyl-N-[2-(2-oxo-2-piperazin-1-ylethoxy)ethyl] benzamide], the IC90 worked out at 480 nM.

Regarding `COc1ccc(-c2cnc3c(Nc4ccc(C(=O)NCCOCCN5CCOCC5)c(C)c4)nccn23)cc1` [Example 106, 4-[[3-(4-methoxyphenyl)imidazo[1,2-a]pyrazin-8-yl]amino]-2-methyl-N-[2-(2-morpholin-4-ylethoxy)ethyl] benzamide], the IC90 is 480 nM.

For the compound `COc1ccc(-c2cnc3c(Nc4ccc(C(=O)NCCOCCn5ccnn5)c(C)c4)nccn23)cc1` [Example 107, 4-[[3-(4-methoxyphenyl)imidazo[1,2-a]pyrazin-8-yl]amino]-2-methyl-N-[2-[2-(triazol-1-yl)ethoxy]ethyl] benzamide], the IC90 was found to be 500 nM.

In the case of `COc1ccc(-c2cnc3c(Nc4ccc(C(=O)N(C)CCOCCN5CC6(COC6)C5)c(C)c4)nccn23)cc1F` [Example 108, 4-[[3-(3-fluoro-4-methoxyphenyl)imidazo[1,2-a]pyrazin-8-yl]amino]-N,2-dimethyl-N-[2-[2-(2-oxa-6-azaspiro [3.3]heptan-6-yl)ethoxy]ethyl] benzamide], the IC90 was 520 nM.

With `COc1ccc(-c2cnc3c(Nc4ccc(C(=O)NCCOCCNS(C)(=O)=O)c(C)c4)nccn23)cc1` [Example 109, N-[2-[2-(methane-sulfonamido)ethoxy]ethyl]-4-[[3-(4-methoxyphenyl)imidazo[1,2-a]pyrazin-8-yl]amino]-2-methylbenzamide], the IC90 was found to be 530 nM.

`COc1ccc(-c2cnc3c(Nc4ccc(C(=O)N(C)CCOCCN5CCS(=O)(=O)CC5)c(C)c4)nccn23)cc1F` [Example 110, N-[2-[2-(1,1-dioxo-1,4-thiazinan-4-yl)ethoxy]ethyl]-4-[[3-(3-fluoro-4-methoxyphenyl)imidazo[1,2-a]pyrazin-8-yl]amino]-N,2-dimethyl-benzamide]: the concentration for an effect of 90% (IC90) was 530 nM.

As for `COc1ccc(-c2cnc3c(Nc4ccc(C(=O)NCCOCCN5CCOC(CN)C5)c(C)c4)nccn23)cc1F` (stereo not drawn) [Example 111, N-[2-[2-[2-(aminomethyl)morpholin-4-yl]ethoxy]ethyl]-4-[[3-(3-fluoro-4-methoxyphenyl)imidazo[1,2-a]pyrazin-8-yl]amino]-2-methylbenzamide; hydrochloride], the IC90 is 560 nM.

Regarding `COc1ccc(-c2cnc3c(Nc4ccc(C(=O)NCCOCC(=O)N5CCNCC5)c(C)c4)nccn23)cc1` [Example 112, 4-[[3-(4-methoxyphenyl)imidazo[1,2-a]pyrazin-8-yl]amino]-2-methyl-N-[2-(2-oxo-2-piperazin-1-ylethoxy)ethyl] benzamide], the IC90 came to 570 nM.

Regarding `COc1ccc(-c2cnc3c(Nc4ccc(C(=O)NCCOCCN5CCNCC5)c(C)c4)nccn23)cc1F` [Example 113, 4-[[3-(3-fluoro-4-methoxyphenyl)imidazo[1,2-a]pyrazin-8-yl]amino]-2-methyl-N-[2-(2-piperazin-1-ylethoxy)ethyl] benzamide; hydrochloride], the 90% effect concentration (IC90) was determined as 580 nM.

On to `Cc1cc(Nc2nccn3c(-c4ccc(OC(F)F)cc4)cnc23)ccc1C(=O)NCCOCCN1CC2(COC2)C1` [Example 114, 4-[[3-[4-(difluoromethoxy)phenyl]imidazo [1,2-a]pyrazin-8-yl]amino]-2-methyl-N-[2-[2-(2-oxa-6-azaspiro [3.3]heptan-6-yl)ethoxy]ethyl] benzamide], for which the IC90 turned out to be 580 nM.

As to `COc1ccc(-c2cnc3c(Nc4ccc(C(=O)NCCOCC(=O)N5CCN(C)CC5)c(C)c4)nccn23)cc1` [Example 115], the IC90 was 590 nM.

In the case of `COc1ccc(-c2cnc3c(Nc4ccc(C(=O)NCCOCCO)c(C)c4)nccn23)cc1` [Example 116, N-[2-(2-hydroxyethoxy)ethyl]-4-[[3-(4-methoxyphenyl)imidazo[1,2-a]pyrazin-8-yl]amino]-2-methylbenzamide], the IC90 stood at 590 nM.

With `Cc1cc(Nc2nccn3c(-c4ccc(Cl)cc4)cnc23)ccc1C(=O)NCCNCCN` [Example 117, N-[2-(2-aminoethylamino)ethyl]-4-[[3-(4-chlorophenyl)imidazo[1,2-a]pyrazin-8-yl]amino]-2-methylbenzamide; hydrochloride], the IC90 stood at 590 nM.

`COc1ccc(-c2cnc3c(Nc4ccc(C(=O)NCCCOCC(=O)N5CCNCC5)c(C)c4)nccn23)cc1F` [Example 118, 4-[[3-(3-fluoro-4-methoxyphenyl)imidazo[1,2-a]pyrazin-8-yl]amino]-2-methyl-N-[3-(2-oxo-2-piperazin-1-ylethoxy)propyl] benzamide; hydrochloride]: the IC90 was determined as 600 nM.

Turning to `Cc1cc(Nc2nccn3c(-c4ccc(OC(F)F)cc4)cnc23)ccc1C(=O)NCCOCCNC(=O)CO` [Example 119, 4-[[3-[4-(difluoromethoxy)phenyl]imidazo [1,2-a]pyrazin-8-yl]amino]-N-[2-[2-[(2-hydroxyacetyl)amino]ethoxy]ethyl]-2-methylbenzamide], the IC90 was found to be 610 nM.

With `COc1ccc(-c2cnc3c(Nc4ccc(C(=O)NCCOCCNC(C)=O)c(C)c4)nccn23)cc1` [Example 120, N-[2-(2-acetamidoethoxy)ethyl]-4-[[3-(4-methoxyphenyl)imidazo[1,2-a]pyrazin-8-yl]amino]-2-methylbenzamide], the concentration for an effect of 90% (IC90) is 620 nM.

As to `COc1ccc(-c2cnc3c(Nc4ccc(C(=O)NCCOCCN5CCN(C)CC5)c(C)c4)nccn23)cc1` [Example 121, 4-[[3-(4-methoxyphenyl)imidazo[1,2-a]pyrazin-8-yl]amino]-2-methyl-N-[2-[2-(4-methylpiperazin-1-yl)ethoxy]ethyl] benzamide], the IC90 stood at 620 nM.

For orientation: IC90 means the point of the concentration-response curve where the effect stands at 90%.
